Data taken from US8268999B2, “Tri-cyclic pyrazolopyridine kinase inhibitors” (Vertex Pharmaceuticals Incorporated, priority 2009, dated 2012).
Several values for one entry are separate records, joined by “and”; a condition that tells them apart may be missing. Equal entries are not always repeated.

How the values were obtained:
PI3Kα = PI3Kα (Homo sapiens, UniProt P42336); experiment: PI3K Inhibition Assay (33P-ATP, PI(4,5)P2 substrate), PI3Kα; type: biochemical; conditions: 2 nM final enzyme, 3 μM ATP, 30 μM PI(4,5)P2, 30 min at 25° C.; competitive tight binding Ki fit
Description: (§1) Using a Biomek FX from Beckman Coulter, 1.5 μL of each of ten 2.5-fold serial dilutions of a compound of the invention in 100% DMSO was added to an individual well (hereafter, “test well”) in a 96 well polystyrene plate [Corning, Costar Item No. 3697]. One test well also contained 1.5 μL of DMSO with no compound. […] Using a Titertek Multidrop, 50 μL of Reaction Mix [100 mM HEPES pH 7.5, 50 mM NaCl, 10 mM DTT, 0.2 mg/mL BSA, 60 μM phosphatidylinositol(4,5)-bisphosphate diC16 (PI(4,5)P2; Avanti Polar Lipids, Cat. No. 840046P) and PI3K isoform of interest (see Table 3 for isoform concentrations)] was added to each well. To initiate the reaction, 50 μL of ATP Mix [20 mM MgCl2, 6 μM ATP (100 μCi/μmole ^33P-ATP)] was added each well, followed by incubating the wells for 30 min. at 25° C. Final concentrations in each well were 50 mM HEPES 7.5, 10 mM MgCl2, 25 mM NaCl, 5 mM DTT, 0.1 mg/mL BSA, 30 μM PI(4,5)P2, 3 μM ATP, and the PI3K isoform of interest (see Table 3). Final compound concentrations in each well ranged from 10 μM to 1 nM.
(§2) After incubation, the reactions in each well were quenched by addition of 50 μL of stop solution [30% TCA/Water, 10 mM ATP]. […] 50 μL of scintillation fluid was added to each well and the plate read on a Perkin-Elmer TopCount™ NXT liquid scintillation counter to obtain ^33P-counts representing inhibition values. […]

PI3Kγ = PI3Kγ (Homo sapiens, UniProt P48736); experiment: PI3K Inhibition Assay (33P-ATP, PI(4,5)P2 substrate), PI3Kγ; type: biochemical; conditions: 2 nM final enzyme, 3 μM ATP, 30 μM PI(4,5)P2, 30 min at 25° C.; competitive tight binding Ki fit
Description: as §1, §2

Sequence of PI3Kα (P42336 whole entry, species assumed, canonical isoform): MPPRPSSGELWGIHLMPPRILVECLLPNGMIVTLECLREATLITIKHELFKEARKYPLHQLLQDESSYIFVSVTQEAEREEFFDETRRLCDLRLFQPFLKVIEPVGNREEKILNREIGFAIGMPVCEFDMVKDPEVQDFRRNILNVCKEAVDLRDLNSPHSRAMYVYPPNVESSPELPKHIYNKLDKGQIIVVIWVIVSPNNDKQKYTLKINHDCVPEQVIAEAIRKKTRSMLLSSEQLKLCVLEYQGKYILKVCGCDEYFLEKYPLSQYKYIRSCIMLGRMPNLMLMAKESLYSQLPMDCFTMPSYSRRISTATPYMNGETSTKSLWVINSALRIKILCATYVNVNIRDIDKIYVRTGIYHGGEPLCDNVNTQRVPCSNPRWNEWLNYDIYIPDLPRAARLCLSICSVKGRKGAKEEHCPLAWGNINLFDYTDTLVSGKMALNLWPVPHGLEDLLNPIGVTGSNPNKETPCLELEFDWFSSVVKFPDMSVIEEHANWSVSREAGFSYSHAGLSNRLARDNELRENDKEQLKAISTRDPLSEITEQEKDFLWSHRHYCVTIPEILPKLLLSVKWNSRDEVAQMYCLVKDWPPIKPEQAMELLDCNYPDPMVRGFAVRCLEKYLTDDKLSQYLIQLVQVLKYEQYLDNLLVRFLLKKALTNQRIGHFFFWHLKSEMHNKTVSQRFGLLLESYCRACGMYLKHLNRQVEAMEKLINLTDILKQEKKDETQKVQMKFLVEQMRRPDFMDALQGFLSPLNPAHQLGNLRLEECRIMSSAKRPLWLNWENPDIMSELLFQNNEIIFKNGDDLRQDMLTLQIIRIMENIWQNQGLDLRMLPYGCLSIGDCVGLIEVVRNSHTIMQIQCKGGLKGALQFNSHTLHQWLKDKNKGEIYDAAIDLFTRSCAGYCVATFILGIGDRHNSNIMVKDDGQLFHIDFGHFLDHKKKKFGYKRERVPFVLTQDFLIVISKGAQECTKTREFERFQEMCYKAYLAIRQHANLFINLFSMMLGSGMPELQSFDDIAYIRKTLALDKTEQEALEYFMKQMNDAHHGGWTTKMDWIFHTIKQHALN
Sequence of PI3Kα (P27986 whole entry partner, species assumed, canonical isoform): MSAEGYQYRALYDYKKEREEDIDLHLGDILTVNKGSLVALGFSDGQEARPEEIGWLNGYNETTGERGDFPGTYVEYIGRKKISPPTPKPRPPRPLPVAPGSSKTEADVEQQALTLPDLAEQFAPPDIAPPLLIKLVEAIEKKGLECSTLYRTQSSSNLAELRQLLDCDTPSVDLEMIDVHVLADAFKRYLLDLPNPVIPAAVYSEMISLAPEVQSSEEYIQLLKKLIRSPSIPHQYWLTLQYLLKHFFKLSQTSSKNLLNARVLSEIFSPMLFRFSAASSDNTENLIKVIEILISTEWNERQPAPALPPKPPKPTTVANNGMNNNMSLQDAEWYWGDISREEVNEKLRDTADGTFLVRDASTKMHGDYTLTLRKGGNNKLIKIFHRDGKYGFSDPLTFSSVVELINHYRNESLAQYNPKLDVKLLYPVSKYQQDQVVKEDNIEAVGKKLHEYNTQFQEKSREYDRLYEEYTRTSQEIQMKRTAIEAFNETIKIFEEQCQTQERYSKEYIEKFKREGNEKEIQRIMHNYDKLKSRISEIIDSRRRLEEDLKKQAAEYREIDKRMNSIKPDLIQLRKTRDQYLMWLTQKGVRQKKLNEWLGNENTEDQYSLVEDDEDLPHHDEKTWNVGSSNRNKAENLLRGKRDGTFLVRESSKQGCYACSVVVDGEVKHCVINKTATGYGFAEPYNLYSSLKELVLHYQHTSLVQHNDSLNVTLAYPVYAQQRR
Sequence of PI3Kγ (P48736 whole entry, species assumed): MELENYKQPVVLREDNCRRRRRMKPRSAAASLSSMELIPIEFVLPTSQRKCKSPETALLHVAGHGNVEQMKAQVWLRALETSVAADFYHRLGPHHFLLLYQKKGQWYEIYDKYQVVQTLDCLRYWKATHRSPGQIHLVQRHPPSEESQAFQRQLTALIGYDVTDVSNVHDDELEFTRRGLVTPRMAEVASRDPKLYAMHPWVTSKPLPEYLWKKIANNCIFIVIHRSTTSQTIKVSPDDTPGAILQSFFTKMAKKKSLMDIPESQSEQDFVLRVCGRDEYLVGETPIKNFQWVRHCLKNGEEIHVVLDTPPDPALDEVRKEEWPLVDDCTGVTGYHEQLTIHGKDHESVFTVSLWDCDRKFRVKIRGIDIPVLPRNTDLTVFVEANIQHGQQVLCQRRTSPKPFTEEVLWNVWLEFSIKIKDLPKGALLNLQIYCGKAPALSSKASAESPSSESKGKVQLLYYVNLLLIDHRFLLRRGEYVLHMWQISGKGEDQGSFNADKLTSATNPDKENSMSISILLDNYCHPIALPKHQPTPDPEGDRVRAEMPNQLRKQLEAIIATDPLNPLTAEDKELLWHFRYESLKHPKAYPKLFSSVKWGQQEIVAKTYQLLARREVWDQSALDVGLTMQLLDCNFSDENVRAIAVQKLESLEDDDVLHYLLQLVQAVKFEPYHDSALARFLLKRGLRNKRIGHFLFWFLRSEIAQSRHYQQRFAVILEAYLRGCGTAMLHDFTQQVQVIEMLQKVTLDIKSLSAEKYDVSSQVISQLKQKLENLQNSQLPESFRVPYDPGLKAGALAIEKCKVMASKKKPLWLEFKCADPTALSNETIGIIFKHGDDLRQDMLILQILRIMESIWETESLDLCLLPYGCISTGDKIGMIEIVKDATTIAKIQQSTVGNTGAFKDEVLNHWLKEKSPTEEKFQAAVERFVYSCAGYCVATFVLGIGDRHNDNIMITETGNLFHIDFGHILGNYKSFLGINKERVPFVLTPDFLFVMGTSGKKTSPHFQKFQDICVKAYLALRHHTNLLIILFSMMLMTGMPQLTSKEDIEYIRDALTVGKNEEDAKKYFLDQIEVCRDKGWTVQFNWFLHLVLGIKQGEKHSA

Ki (PI3Kα)	Ki (PI3Kγ)	SMILES
2 nM and < 100 nM		COc1cc(-c2ccc3nc(Nc4cnccn4)sc3n2)cnc1OC [Compound 37]
	3 nM and < 100 nM	CCN(CC)C(=O)c1cccc(Nc2nc3ccc(-c4cncc(OC)c4)cc3s2)n1 [Compound 110]
